According to patent US4882349A, “Pyrrolacetic amides having antiinflammatory activity” (priority 1982, dated 1989):

What was measured:
in vivo [1] = conditions: rat
in vivo [2] = conditions: mouse
[3] = system: mucus secreted by the respiratory airway; assay: antisecretory activity, respiratory mucus secretion; assay type: in vivo, albino male New Zealand rabbits; conditions: vs control group
In short: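 Male New Zealand rabbits, groups of four, urethane-anaesthetised (1.1 g/kg i.p.) with tracheal Y cannula breathing 100%-humidity air at 39° C. Mucus collected and measured 3 and 6 h post-dose; change expressed as percent difference from vehicle controls.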

[4] = system: phenyl-p-quinone-induced writhing (abdominal contractions); assay: phenylquinone-induced writhing test (analgesic activity), compound given 30 min before phenyl-p-quinone; assay type: in vivo, male Wistar rats
In short: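 Male Wistar rats (110±5 g), fasted 14 h, received test compounds orally or parenterally in 0.5% CMC/saline vehicle 30 min before 2 ml of 0.36% phenyl-p-quinone in 5% ethanol.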

[5] = system: cough provoked by mechanical stimulation of the tracheal bifurcation mucosa; assay: antitussive activity, mechanically provoked coughing; assay type: in vivo, albino Guinea-pigs; conditions: 1 h after administration
In short: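 Albino guinea-pigs (300 g) with a tracheal Y cannula; coughing provoked by mechanically stimulating the tracheal bifurcation mucosa with a boar's hair.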

[6] = system: carrageenin-induced oedema; assay: carrageenin-induced oedema test (anti-inflammatory activity); assay type: in vivo, albino male Wistar rats

SMILES: COc1ccccc1OC(=O)CNC(=O)Cc1ccc(C(=O)c2ccc(C)cc2)n1C [Compound 1-d, 1-methyl-5-p-toluoylpyrrole-2-acetamidoacetic acid guaiacyl ester]
- LD50 (in vivo [1]; ip): 1100 mg/kg
- LD50 (in vivo [1]; po): 1450 mg/kg
- LD50 (in vivo [2]; ip): 1370 mg/kg
- LD50 (in vivo [2]; po): > 1500 mg/kg
- % difference in mucus secretion ([3]; 50 mg/Kg i.p., 3 h): -5%
- % difference in mucus secretion ([3]; 50 mg/Kg i.p., 6 h): -5%
- % difference in mucus secretion ([3]; 50 mg/Kg per os, 3 h): 0.0%
- % difference in mucus secretion ([3]; 50 mg/Kg per os, 6 h): 0.0%
- % difference in mucus secretion ([3]; 75 mg/Kg i.p., 3 h): -18%
- % difference in mucus secretion ([3]; 75 mg/Kg i.p., 6 h): -15%
- % difference in mucus secretion ([3]; 75 mg/Kg per os, 3 h): -15%
- % difference in mucus secretion ([3]; 75 mg/Kg per os, 6 h): -10%
- % difference in mucus secretion ([3]; 100 mg/Kg i.p., 3 h): -38%
- % difference in mucus secretion ([3]; 100 mg/Kg i.p., 6 h): -30%
- % difference in mucus secretion ([3]; 100 mg/Kg per os, 3 h): -32%
- % difference in mucus secretion ([3]; 100 mg/Kg per os, 6 h): -27%
- % Protection ([4]; 5 mg/Kg i.p.): 22.1%
- % Protection ([4]; 5 mg/Kg per os): 29.1%
- % Protection ([4]; 10 mg/Kg i.p.): 56.0%
- % Protection ([4]; 10 mg/Kg per os): 53.4%
- % Protection ([4]; 20 mg/Kg i.p.): 87.0%
- % Protection ([4]; 20 mg/Kg per os): 80.2%
- % inhibition, cough amplitude ([5]; 50 mg/Kg i.p.): 12%
- % inhibition, cough frequency ([5]; 50 mg/Kg i.p.): 15%
- % inhibition, cough amplitude ([5]; 50 mg/Kg per os): 10%
- % inhibition, cough frequency ([5]; 50 mg/Kg per os): 18%
- % inhibition, cough amplitude ([5]; 75 mg/Kg i.p.): 20%
- % inhibition, cough frequency ([5]; 75 mg/Kg i.p.): 36%
- % inhibition, cough amplitude ([5]; 75 mg/Kg per os): 22%
- % inhibition, cough frequency ([5]; 75 mg/Kg per os): 29%
- % inhibition, cough amplitude ([5]; 100 mg/Kg i.p.): 30%
- % inhibition, cough frequency ([5]; 100 mg/Kg i.p.): 45%
- % inhibition, cough amplitude ([5]; 100 mg/Kg per os): 30%
- % inhibition, cough frequency ([5]; 100 mg/Kg per os): 49%
- oedema % inhibition ([6]; 2.5 mg/Kg per os, 2 h): 50.0%
- oedema % inhibition ([6]; 2.5 mg/Kg per os, 4 h): 34.6%
- oedema % inhibition ([6]; 2.5 mg/Kg per os, 6 h): 23.1%
- oedema % inhibition ([6]; 2.5 mg/Kg per os, 24 h): 0.0%
- oedema % inhibition ([6]; 2.5 mg/Kg per os, 48 h): 0.0%
- oedema % inhibition ([6]; 2.5 mg/Kg per os, 72 h): 0.0%
- oedema % inhibition ([6]; 2.5 mg/Kg, Table IV (route not given), 2 h): 52.3%
- oedema % inhibition ([6]; 2.5 mg/Kg, Table IV (route not given), 4 h): 37.0%
- oedema % inhibition ([6]; 2.5 mg/Kg, Table IV (route not given), 6 h): 26.0%
- oedema % inhibition ([6]; 2.5 mg/Kg, Table IV (route not given), 24 h): 14.0%
- oedema % inhibition ([6]; 2.5 mg/Kg, Table IV (route not given), 48 h): 0.0%
- oedema % inhibition ([6]; 2.5 mg/Kg, Table IV (route not given), 72 h): 0.0%
- oedema % inhibition ([6]; 5 mg/Kg per os, 2 h): 51.4%
- oedema % inhibition ([6]; 5 mg/Kg per os, 4 h): 38.8%
- oedema % inhibition ([6]; 5 mg/Kg per os, 6 h): 24.0%
- oedema % inhibition ([6]; 5 mg/Kg per os, 24 h): 10.0%
- oedema % inhibition ([6]; 5 mg/Kg per os, 48 h): 10.0%
- oedema % inhibition ([6]; 5 mg/Kg per os, 72 h): 6.0%
- oedema % inhibition ([6]; 5 mg/Kg, Table IV (route not given), 2 h): 54.0%
- oedema % inhibition ([6]; 5 mg/Kg, Table IV (route not given), 4 h): 40.0%
- oedema % inhibition ([6]; 5 mg/Kg, Table IV (route not given), 6 h): 24.6%
- oedema % inhibition ([6]; 5 mg/Kg, Table IV (route not given), 24 h): 10.1%
- oedema % inhibition ([6]; 5 mg/Kg, Table IV (route not given), 48 h): 0.0%
- oedema % inhibition ([6]; 5 mg/Kg, Table IV (route not given), 72 h): 0.0%
- oedema % inhibition ([6]; 10 mg/Kg per os, 2 h): 61.5%
- oedema % inhibition ([6]; 10 mg/Kg per os, 4 h): 41.2%
- oedema % inhibition ([6]; 10 mg/Kg per os, 6 h): 34.9%
- oedema % inhibition ([6]; 10 mg/Kg per os, 24 h): 12.6%
- oedema % inhibition ([6]; 10 mg/Kg per os, 48 h): 14.0%
- oedema % inhibition ([6]; 10 mg/Kg per os, 72 h): 9.0%
- oedema % inhibition ([6]; 10 mg/Kg, Table IV (route not given), 2 h): 60.0%
- oedema % inhibition ([6]; 10 mg/Kg, Table IV (route not given), 4 h): 46.9%
- oedema % inhibition ([6]; 10 mg/Kg, Table IV (route not given), 6 h): 36.7%
- oedema % inhibition ([6]; 10 mg/Kg, Table IV (route not given), 24 h): 16.5%
- oedema % inhibition ([6]; 10 mg/Kg, Table IV (route not given), 48 h): 6.3%
- oedema % inhibition ([6]; 10 mg/Kg, Table IV (route not given), 72 h): 0.0%
- oedema % inhibition ([6]; 20 mg/Kg per os, 2 h): 62.1%
- oedema % inhibition ([6]; 20 mg/Kg per os, 4 h): 48.7%
- oedema % inhibition ([6]; 20 mg/Kg per os, 6 h): 32.8%
- oedema % inhibition ([6]; 20 mg/Kg per os, 24 h): 26.6%
- oedema % inhibition ([6]; 20 mg/Kg per os, 48 h): 25.9%
- oedema % inhibition ([6]; 20 mg/Kg per os, 72 h): 3.3%
- oedema % inhibition ([6]; 20 mg/Kg, Table IV (route not given), 2 h): 65.0%
- oedema % inhibition ([6]; 20 mg/Kg, Table IV (route not given), 4 h): 50.4%
- oedema % inhibition ([6]; 20 mg/Kg, Table IV (route not given), 6 h): 48.6%
- oedema % inhibition ([6]; 20 mg/Kg, Table IV (route not given), 24 h): 23.5%
- oedema % inhibition ([6]; 20 mg/Kg, Table IV (route not given), 48 h): 9.1%
- oedema % inhibition ([6]; 20 mg/Kg, Table IV (route not given), 72 h): 8.4%
- oedema % inhibition ([6]; 50 mg/Kg per os, 2 h): 66.9%
- oedema % inhibition ([6]; 50 mg/Kg per os, 4 h): 66.8%
- oedema % inhibition ([6]; 50 mg/Kg per os, 6 h): 57.8%
- oedema % inhibition ([6]; 50 mg/Kg per os, 24 h): 30.9%
- oedema % inhibition ([6]; 50 mg/Kg per os, 48 h): 36.3%
- oedema % inhibition ([6]; 50 mg/Kg per os, 72 h): 38.6%
- oedema % inhibition ([6]; 50 mg/Kg, Table IV (route not given), 2 h): 69.7%
- oedema % inhibition ([6]; 50 mg/Kg, Table IV (route not given), 4 h): 74.0%
- oedema % inhibition ([6]; 50 mg/Kg, Table IV (route not given), 6 h): 67.2%
- oedema % inhibition ([6]; 50 mg/Kg, Table IV (route not given), 24 h): 34.5%
- oedema % inhibition ([6]; 50 mg/Kg, Table IV (route not given), 48 h): 20.8%
- oedema % inhibition ([6]; 50 mg/Kg, Table IV (route not given), 72 h): 15.3%
- oedema % inhibition ([6]; 100 mg/Kg per os, 2 h): 68.0%
- oedema % inhibition ([6]; 100 mg/Kg per os, 4 h): 74.0%
- oedema % inhibition ([6]; 100 mg/Kg per os, 6 h): 67.5%
- oedema % inhibition ([6]; 100 mg/Kg per os, 24 h): 40.3%
- oedema % inhibition ([6]; 100 mg/Kg per os, 48 h): 38.0%
- oedema % inhibition ([6]; 100 mg/Kg per os, 72 h): 33.0%
- oedema % inhibition ([6]; 100 mg/Kg, Table IV (route not given), 2 h): 76.5%
- oedema % inhibition ([6]; 100 mg/Kg, Table IV (route not given), 4 h): 79.5%
- oedema % inhibition ([6]; 100 mg/Kg, Table IV (route not given), 6 h): 73.4%
- oedema % inhibition ([6]; 100 mg/Kg, Table IV (route not given), 24 h): 42.4%
- oedema % inhibition ([6]; 100 mg/Kg, Table IV (route not given), 48 h): 33.0%
- oedema % inhibition ([6]; 100 mg/Kg, Table IV (route not given), 72 h): 31.6%
